Reference: patent publication US12539292B2, “BRM targeting compounds and associated methods of use” (Arvinas Operations, Inc., priority 2018, dated 2026)
Like-named read-outs stand apart in the source and are kept apart here. One block for each compound: values may come before it.

Target: T1, BRM (Homo sapiens, UniProt P51531)
T1 construct: In-Cell Western Screen of BRM Degradation in SW1573 Cells; endogenous in cells; host or cells: SW1573
Assay: In-cell Western screen of BRM degradation in SW1573 cells (Dmax and DC50)
Assay type: cell-based
Procedure, shortened: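 SW1573 cells were treated overnight (18-20 hours) with compound at 0.1% final DMSO. They were then PFA-fixed, permeabilised with Triton X-100 and immunostained with 800 nm/680 nm secondary antibodies. BRM signal was quantified by LI-COR in-cell Western imaging to derive Dmax and DC50.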

[1] = BRM degradation, SW1573 cells, Table 2D, read-out: **Dmax (%) (% degraded)
[2] = BRM degradation, SW1573 cells, Table 2D, read-out: *DC50
[3] = BRM degradation, SW1573 cells, read-out: DC50

T1 sequence (P51531 whole entry): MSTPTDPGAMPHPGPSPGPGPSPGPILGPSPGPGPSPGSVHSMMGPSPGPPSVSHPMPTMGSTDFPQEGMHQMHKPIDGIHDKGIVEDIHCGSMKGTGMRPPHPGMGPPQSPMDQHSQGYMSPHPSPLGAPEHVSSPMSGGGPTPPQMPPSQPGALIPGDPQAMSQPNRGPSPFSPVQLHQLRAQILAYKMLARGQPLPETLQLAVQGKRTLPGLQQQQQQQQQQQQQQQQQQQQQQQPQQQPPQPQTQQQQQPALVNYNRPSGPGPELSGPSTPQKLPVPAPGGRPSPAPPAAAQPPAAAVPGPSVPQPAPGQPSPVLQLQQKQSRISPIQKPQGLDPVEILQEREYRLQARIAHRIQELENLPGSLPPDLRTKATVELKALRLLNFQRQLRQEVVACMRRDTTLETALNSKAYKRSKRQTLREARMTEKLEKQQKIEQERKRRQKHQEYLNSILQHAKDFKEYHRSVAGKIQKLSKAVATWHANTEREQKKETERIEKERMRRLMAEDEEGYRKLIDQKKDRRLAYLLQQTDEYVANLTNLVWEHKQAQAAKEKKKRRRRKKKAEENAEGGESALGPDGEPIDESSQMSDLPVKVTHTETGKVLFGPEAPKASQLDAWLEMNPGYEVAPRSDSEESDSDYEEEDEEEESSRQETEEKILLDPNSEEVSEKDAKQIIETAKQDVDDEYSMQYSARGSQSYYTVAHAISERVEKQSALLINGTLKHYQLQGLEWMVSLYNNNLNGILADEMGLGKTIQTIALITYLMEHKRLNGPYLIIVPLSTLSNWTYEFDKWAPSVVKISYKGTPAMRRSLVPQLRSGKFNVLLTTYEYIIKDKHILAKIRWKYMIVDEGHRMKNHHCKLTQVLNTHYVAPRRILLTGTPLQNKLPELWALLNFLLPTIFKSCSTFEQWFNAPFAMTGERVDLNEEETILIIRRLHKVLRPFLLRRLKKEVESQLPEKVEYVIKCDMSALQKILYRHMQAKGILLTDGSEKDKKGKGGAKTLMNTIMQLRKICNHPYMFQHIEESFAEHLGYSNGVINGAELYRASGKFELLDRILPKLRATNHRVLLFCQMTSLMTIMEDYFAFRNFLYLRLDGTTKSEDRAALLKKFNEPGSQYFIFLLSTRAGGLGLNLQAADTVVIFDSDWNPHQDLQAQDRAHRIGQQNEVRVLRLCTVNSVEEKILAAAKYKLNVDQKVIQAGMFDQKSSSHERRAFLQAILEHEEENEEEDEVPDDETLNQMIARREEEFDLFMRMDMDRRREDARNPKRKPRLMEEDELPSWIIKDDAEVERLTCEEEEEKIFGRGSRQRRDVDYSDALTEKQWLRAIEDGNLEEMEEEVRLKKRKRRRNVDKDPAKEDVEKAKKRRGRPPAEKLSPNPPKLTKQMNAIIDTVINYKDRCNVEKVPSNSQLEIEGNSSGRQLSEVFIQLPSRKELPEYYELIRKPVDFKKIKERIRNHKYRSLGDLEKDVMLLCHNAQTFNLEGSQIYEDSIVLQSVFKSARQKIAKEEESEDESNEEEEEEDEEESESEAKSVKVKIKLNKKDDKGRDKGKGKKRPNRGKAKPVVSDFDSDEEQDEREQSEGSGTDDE

Compound: Cc1nccn1-c1ccc([C@H](C)NC(=O)[C@@H]2C[C@@H](O)CN2C(=O)[C@H](c2cc(N3CCN(C[C@H]4C[C@H](Oc5cc(N6C7CCC6CN(c6cc(-c8ccccc8O)nnc6N)C7)ccn5)C4)CC3)no2)C(C)C)cc1 [compound 575, (2S,4R)-1-((2S)-2-(3-(4-(((1r,3S)-3-((4-(3-(3-amino-6-(2-hydroxyphenyl)pyridazin-4-yl)-3,8-diazabicyclo[3.2.1]octan-8-yl)pyridin-2-yl)oxy)cyclobutyl)methyl)piperazin-1-yl)isoxazol-5-yl)-3-methylbutanoyl)-4-hydroxy-N-((S)-1-(4-(2-methyl-1H-imidazol-1-yl)phenyl)ethyl)pyrrolidine-2-carboxamide]
Dmax [1]: 50 to 75%
DC50 [2]: 0.01 to 0.03 µM

Compound: Cc1ncsc1-c1ccc([C@H](C)NC(=O)[C@@H]2C[C@@H](O)CN2C(=O)[C@H](c2cc(OCC[C@@H]3CCN(C[C@H]4C[C@H](Oc5cc(N6C7CCC6CN(c6cc(-c8ccccc8O)nnc6N)C7)ccn5)C4)[C@@H](C)C3)no2)C(C)C)cc1 (racemic) [compound 581, (2S,4R)-1-((2S)-2-(3-(2-((2S,4R)-1-(((1r,3S)-3-((4-(3-(3-amino-6-(2-hydroxyphenyl)pyridazin-4-yl)-3,8-diazabicyclo[3.2.1]octan-8-yl)pyridin-2-yl)oxy)cyclobutyl)methyl)-2-methylpiperidin-4-yl)ethoxy)isoxazol-5-yl)-3-methylbutanoyl)-4-hydroxy-N-((S)-1-(4-(4-methylthiazol-5-yl)phenyl)ethyl)pyrrolidine-2-carboxamide]
Dmax [1]: > 75%
DC50 [2]: < 0.0025 µM

DC50 [3]: > 0.03 µM
Compound: Cc1ncsc1-c1ccc([C@H](C)NC(=O)[C@@H]2C[C@@H](O)CN2C(=O)[C@H](c2cc(OCCOCCOCCOCCn3cc(-c4cc(-c5ccccc5O)nnc4N)cn3)no2)C(C)C)cc1 [compound 181, (2S,4R)-1-((S)-2-(3-(2-(2-(2-(2-(4-(3-amino-6-(2-hydroxyphenyl)pyridazin-4-yl)-1H-pyrazol-1-yl)ethoxy)ethoxy)ethoxy)ethoxy)isoxazol-5-yl)-3-methylbutanoyl)-4-hydroxy-N-((S)-1-(4-(4-methylthiazol-5-yl)phenyl)ethyl)pyrrolidine-2-carboxamide]

Compound: Cc1ncsc1-c1ccc([C@H](C)NC(=O)[C@@H]2C[C@@H](O)CN2C(=O)[C@@H](c2cc(N3CCC(CN4CCC(O[C@H]5C[C@H](N6CCOC7(CCN(c8cc(-c9ccccc9O)nnc8N)CC7)C6)C5)CC4)CC3)no2)C(C)C)cc1 [compound 618, (2S,4R)-1-((R)-2-(3-(4-((4-((1r,3r)-3-(9-(3-amino-6-(2-hydroxyphenyl)pyridazin-4-yl)-1-oxa-4,9-diazaspiro[5.5]undecan-4-yl)cyclobutoxy)piperidin-1-yl)methyl)piperidin-1-yl)isoxazol-5-yl)-3-methylbutanoyl)-4-hydroxy-N-((S)-1-(4-(4-methylthiazol-5-yl)phenyl)ethyl)pyrrolidine-2-carboxamide]
Dmax [1]: > 75%
DC50 [2]: < 0.0025 µM

Compound: CNC(=O)CCC[C@H](NC(=O)[C@@H]1C[C@@H](O)CN1C(=O)[C@@H](c1cc(OCCN2CCC(O[C@H]3C[C@H](Oc4cc(N5C6CCC5CN(c5cc(-c7ccccc7O)nnc5N)C6)ccn4)C3)CC2)no1)C(C)C)c1ccc(-c2scnc2C)cc1 [compound 570, (2S,4R)-1-((2R)-2-(3-(2-(4-((1r,3R)-3-((4-(3-(3-amino-6-(2-hydroxyphenyl)pyridazin-4-yl)-3,8-diazabicyclo[3.2.1]octan-8-yl)pyridin-2-yl)oxy)cyclobutoxy)piperidin-1-yl)ethoxy)isoxazol-5-yl)-3-methylbutanoyl)-4-hydroxy-N-((S)-5-(methylamino)-1-(4-(4-methylthiazol-5-yl)phenyl)-5-oxopentyl)pyrrolidine-2-carboxamide]
Dmax [1]: > 75%
DC50 [2]: < 0.0025 µM

Compound: CC(C)[C@H](C(=O)N1C[C@H](O)C[C@H]1C(=O)N[C@@H](C)c1ccc(-c2scnc2N)cc1)c1cc(N2CCC(CN3CCC(O[C@H]4C[C@H](Oc5cc(N6C7CCC6CN(c6cc(-c8ccccc8O)nnc6N)C7)ccn5)C4)CC3)CC2)no1 [compound 629, (2S,4R)-1-((2S)-2-(3-(4-((4-((1r,3r)-3-((4-(3-(3-amino-6-(2-hydroxyphenyl)pyridazin-4-yl)-3,8-diazabicyclo[3.2.1]octan-8-yl)pyridin-2-yl)oxy)cyclobutoxy)piperidin-1-yl)methyl)piperidin-1-yl)isoxazol-5-yl)-3-methylbutanoyl)-N-((S)-1-(4-(4-aminothiazol-5-yl)phenyl)ethyl)-4-hydroxypyrrolidine-2-carboxamide]
DC50 [3]: 0.0025 to 0.01 µM
Dmax (BRM degradation, SW1573 cells, read-out: Dmax (% degraded)): > 75%

DC50 (target protein degradation, read-out: BRM DC50): > 0.03 µM
Compound: Cc1ncsc1-c1ccc([C@H](C)NC(=O)[C@@H]2C[C@@H](O)CN2C(=O)[C@@H](c2cc(OCCC3CCN(C(=O)[C@H]4C[C@H](CN5CCC([C@H](C)n6cc(-c7cc(-c8ccccc8O)nnc7N)cn6)CC5)C4)CC3)no2)C(C)C)cc1 [compound 454, (2S,4R)-1-((R)-2-(3-(2-(1-((1S,3R)-3-((4-((S)-1-(4-(3-amino-6-(2-hydroxyphenyl)pyridazin-4-yl)-1H-pyrazol-1-yl)ethyl)piperidin-1-yl)methyl)cyclobutane-1-carbonyl)piperidin-4-yl)ethoxy)isoxazol-5-yl)-3-methylbutanoyl)-4-hydroxy-N-((S)-1-(4-(4-methylthiazol-5-yl)phenyl)ethyl)pyrrolidine-2-carboxamide]

Compound: Cc1ncsc1-c1ccc([C@H](C)NC(=O)[C@@H]2C[C@@H](O)CN2C(=O)[C@H](c2cc(OCC#Cc3ccc(O[C@H]4C[C@H](Oc5cc(N6C7CCC6CN(c6cc(-c8ccccc8O)nnc6N)C7)ccn5)C4)cn3)no2)C(C)C)cc1 [compound 69, (2S,4R)-1-((2S)-2-(3-((3-(5-((1r,3S)-3-((4-(3-(3-amino-6-(2-hydroxyphenyl)pyridazin-4-yl)-3,8-diazabicyclo[3.2.1]octan-8-yl)pyridin-2-yl)oxy)cyclobutoxy)pyridin-2-yl)prop-2-yn-1-yl)oxy)isoxazol-5-yl)-3-methylbutanoyl)-4-hydroxy-N-((S)-1-(4-(4-methylthiazol-5-yl)phenyl)ethyl)pyrrolidine-2-carboxamide]
DC50 [3]: 0.01 to 0.03 µM
Dmax (BRM degradation, SW1573 cells, when tested at the top concentration of between 0.3 and 10 μM, read-out: Dmax (%) (% degraded)): > 75%

Compound: Cc1nccn1-c1ccc([C@H](C)NC(=O)[C@@H]2C[C@@H](O)CN2C(=O)[C@@H](c2cc(OCCN3CCN(CCOc4cc(N5C6CCC5CN(c5cc(-c7ccccc7O)nnc5N)C6)ccn4)C[C@@H]3C)no2)C(C)C)cc1 [compound 553, (2S,4R)-1-((2R)-2-(3-(2-((2S)-4-(2-((4-(3-(3-amino-6-(2-hydroxyphenyl)pyridazin-4-yl)-3,8-diazabicyclo[3.2.1]octan-8-yl)pyridin-2-yl)oxy)ethyl)-2-methylpiperazin-1-yl)ethoxy)isoxazol-5-yl)-3-methylbutanoyl)-4-hydroxy-N-((S)-1-(4-(2-methyl-1H-imidazol-1-yl)phenyl)ethyl) pyrrolidine-2-carboxamide]
Dmax [1]: > 75%
DC50 [2]: < 0.0025 µM
